In patent US20070202062A1, “Natural deodorant compositions comprising renewably-based, biodegradable 1,3-propanediol” (priority 2006, published 2007):

Assays:
[1] = Glycerine vs Bio-PDO - Efficacy (deodorant actives, in vivo human)
[2] = Glycerine vs Bio-PDO - Stability (Efficacy/shelf-life); conditions: active in GLYCERINE; in vivo (human)
[3] = Glycerine vs Bio-PDO - Stability (Shrinkage - 3 months); assay type: physicochemical
[4] = Glycerine vs Bio-PDO - Irritation (in vivo human)

Compound	Efficacy, # hours ([1]; active in Bio-PDO) [h]	Efficacy, # hours ([1]; active in GLYCERINE) [h]	Stability (Efficacy/shelf-life), # months [2] [months]	Stability (Shrinkage - 3 months), % in product ([3]; active in Bio-PDO) [%]	Stability (Shrinkage - 3 months), % in product ([3]; active in GLYCERINE) [%]	Irritation, Ranking 1-10 ([4]; active in Bio-PDO)	Irritation, Ranking 1-10 ([4]; active in GLYCERINE)
CCCCCCCCCCCC(=O)OCC(O)CO (stereo not drawn) [GML, Glyceryl monolaurate]	12	4	6	3	0	0	0
polyglyceryl-3 caprylate [polyglycerol 3 caprylate]	12	0	–	–	–	–	–
